Assay results as given in US20260176285A1, “SALT OF DIOXANE QUINOLINE COMPOUND, CRYSTAL FORM THEREOF, PREPARATION METHODS THEREFOR AND USES THEREOF” (Beijing Scitech-MQ Pharmaceuticals Limited, priority 2022, published 2026).

What was measured:
[1] = Dynamic solubility in water, SGF, FaSSIF and FeSSIF; format: physicochemical; design: S (dynamic solubility): unit not given here; details: listed as p-Toluenesulfonate salt crystal form A-II; for S (dynamic solubility): 37° C., feed 10 mg/mL
Outline: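 Free form and salt crystal forms tested over time in water, SGF (pH 1.8), FaSSIF (pH 6.5) and FeSSIF (pH 5.0), simulated fluids made with SIF powder. At each time point samples were centrifuged, passed through 0.45 μm PTFE, and filtrate concentration (HPLC) and pH measured.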

[2] = test system: human lung cancer cells EBC-1; assay: Efficacy in nude mouse tumor-bearing model of human lung cancer cells EBC-1; format: in vivo, Balb/c nude mouse
Description: In this assay, the free compound of formula (I) of the present application and different salts of the compound prepared in Examples 1, 2 and 5 were orally administered to a nude mouse tumor-bearing model of human lung cancer cells EBC-1 to study their effects on tumor growth.
Preparation of test compounds: an appropriate weight of the test compound (including the free form of the compound of formula (I) and different salts of the compound prepared in Examples 1, 2 and 5) was weighed, completely suspended/dissolved in an appropriate volume of 0.1% sodium carboxymethyl cellulose, stirred and vortexed to give a uniform solution or suspension.
Methods: All assays were authorized by the Animal Welfare Committee. EBC-1 in the logarithmic growth phase was inoculated into immune-deficient nude mice (BALB/c nude, female, 6-8 weeks old, weighing 18±2 g), subcutaneously on the right back, with a cell inoculation amount of 5×10^6/mouse. After the tumor grew to 150-200 mm^3, the animals were randomly divided into groups, 6 mice per group. The dose of each test substance was set at 15 mg/kg and 7.5 mg/kg (both based on the concentration of the effective formula (I) compound), and administered once a day for about 3 weeks. The test compounds were freshly prepared each day before use. During the assay, the tumor diameter was measured twice a week, and the mice were weighed at the same time. The calculation formula of tumor volume (TV) is: TV=1/2×a×b^2, where a and b represent length and width, respectively. The relative tumor volume (RTV) was calculated based on the measurement results, and the calculation formula is: RTV=Vt/V0, wherein V0 is the tumor volume measured at the time of cage grouping and dosing initiation (i.e., d0), and Vt is the tumor volume at each measurement. The evaluation index of antitumor activity is the relative tumor proliferation rate T/C (%), calculated as follows: T/C (%)=(TRTV/CRTV)×100%, TRTV: RTV of the treatment group; CRTV: RTV of the negative control group. T and C represent the average tumor volume at a certain time point in the drug administration group and the control group, respectively.

[3] = Hygroscopicity by dynamic moisture sorption (DVS); format: physicochemical; details: DVS, listed as p-Toluenesulfonate salt crystal form A-II
Outline: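 Mass change of salt and free-form crystal samples recorded at 25° C over a 0% RH-95% RH-0% RH cycle. Steps were 10% RH (last step 5%) with a dm/dt equilibrium criterion of 0.002%/min.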

[4] = Solid-state stability evaluation (XRPD, HPLC); format: physicochemical; details: for Purity / Purity/initial purity: listed as p-Toluenesulfonate salt crystal form A-II
Description: The following 6 test samples were placed under 25° C./60% RH and 40° C./75% RH conditions for 1 week, and then the physical and chemical stability of the samples was tested by XRPD and HPLC.
At the same time, after the p-toluenesulfonate salt crystal form A-II and crystal form B-III solids were placed at 80° C. for 24 hours, the physical and chemical stability of the samples were tested by XRPD and HPLC.

Compound: O=C(Nc1ccc(F)cc1)C1(C(=O)Nc2ccc(Oc3ccnc4cc(OCCCN5CCOCC5)c5c(c34)OCCO5)c(F)c2)CC1 [Example 2, N-(3-fluoro-4-((5-(3-morpholinopropoxy)-2,3-dihydro-[1,4]dioxano[2,3-f]quinolin-10-yl)oxy)phenyl)-N-(4-fluorophenyl)cyclopropane-1,1-dicarboxamide]
- S (dynamic solubility) ([1]; FaSSIF, 1 hour): 0.073
- pH of the filtrate ([1]; FaSSIF, 1 hour): 6.1
- S (dynamic solubility) ([1]; FaSSIF, 2 hours): 0.066
- pH of the filtrate ([1]; FaSSIF, 2 hours): 6.1
- S (dynamic solubility) ([1]; FaSSIF, 4 hours): 0.059
- pH of the filtrate ([1]; FaSSIF, 4 hours): 6.1
- S (dynamic solubility) ([1]; FaSSIF, 24 hours): 0.072
- pH of the filtrate ([1]; FaSSIF, 24 hours): 5.1
- S (dynamic solubility) ([1]; FeSSIF, 1 hour): 1.8
- pH of the filtrate ([1]; FeSSIF, 1 hour): 5.0
- S (dynamic solubility) ([1]; FeSSIF, 2 hours): 2.0
- pH of the filtrate ([1]; FeSSIF, 2 hours): 5.0
- S (dynamic solubility) ([1]; FeSSIF, 4 hours): 1.5
- pH of the filtrate ([1]; FeSSIF, 4 hours): 5.0
- S (dynamic solubility) ([1]; FeSSIF, 24 hours): 0.84
- pH of the filtrate ([1]; FeSSIF, 24 hours): 5.0
- S (dynamic solubility) ([1]; H2O, 1 hour): 2.7
- pH of the filtrate ([1]; H2O, 1 hour): 4.8
- S (dynamic solubility) ([1]; H2O, 2 hours): 2.7
- pH of the filtrate ([1]; H2O, 2 hours): 4.9
- S (dynamic solubility) ([1]; H2O, 4 hours): 2.8
- pH of the filtrate ([1]; H2O, 4 hours): 4.7
- S (dynamic solubility) ([1]; H2O, 24 hours): 2.5
- pH of the filtrate ([1]; H2O, 24 hours): 4.2
- S (dynamic solubility) ([1]; SGF, 1 hour): 6.8
- pH of the filtrate ([1]; SGF, 1 hour): 2.3
- S (dynamic solubility) ([1]; SGF, 2 hours): completely dissolved
- S (dynamic solubility) ([1]; SGF, 4 hours): completely dissolved
- S (dynamic solubility) ([1]; SGF, 24 hours): 6.3
- pH of the filtrate ([1]; SGF, 24 hours): 2.3
- T/C (relative tumor proliferation rate) ([2]; 7.5 mg/kg oral once a day, day 7): 61.3%
- T/C (relative tumor proliferation rate) ([2]; 7.5 mg/kg oral once a day, day 10): 47.4%
- T/C (relative tumor proliferation rate) ([2]; 7.5 mg/kg oral once a day, day 14): 40.3%
- T/C (relative tumor proliferation rate) ([2]; 7.5 mg/kg oral once a day, day 18): 37.7%
- T/C (relative tumor proliferation rate) ([2]; 7.5 mg/kg oral once a day, day 21): 33.1%
- T/C (relative tumor proliferation rate) ([2]; 15 mg/kg oral once a day, day 3): 67.9%
- T/C (relative tumor proliferation rate) ([2]; 15 mg/kg oral once a day, day 7): 37.3%
- T/C (relative tumor proliferation rate) ([2]; 15 mg/kg oral once a day, day 10): 25.4%
- T/C (relative tumor proliferation rate) ([2]; 15 mg/kg oral once a day, day 14): 17.5%
- T/C (relative tumor proliferation rate) ([2]; 15 mg/kg oral once a day, day 18): 16.0%
- T/C (relative tumor proliferation rate) ([2]; 15 mg/kg oral once a day, day 21): 12.09%
- Moisture adsorption (25° C./80% RH) ([3]; 25° C./80% RH): 0.52%
- Hygroscopicity ([3]; 25° C.): Slightly
- Purity ([4]; 25° C./60% RH, 1 week): 99.52 area %
- Purity/initial purity ([4]; 25° C./60% RH, 1 week): 100.1%
- Purity/initial purity ([4]; 40° C./75% RH, 1 week): 100.0%
- Change of Crystal form ([4]; 80° C., 24 hours): no
- Purity ([4]; 80° C., 24 hours): 99.42 area %
